Data reported in patent US6890951B2, “Treatment of addiction and addiction-related behavior” (Brookhaven Science Associates LLC, priority 1998, dated 2005).
Read-outs that look alike come from different tables or passages of the source.

Columns and labels:
GABAB receptors = biological target: T1, GABAB receptors (Rattus norvegicus, UniProt Q9Z0U4); settings: 2-hydroxysaclofen; cited from earlier work
T1 construct: microinjection of baclofen (0.1-1 nmol) into the ventral tegmental area; host or cells: ventral tegmental area of living animals (endogenous receptor)
T1 sequence (Q9Z0U4 17-960 limits assumed): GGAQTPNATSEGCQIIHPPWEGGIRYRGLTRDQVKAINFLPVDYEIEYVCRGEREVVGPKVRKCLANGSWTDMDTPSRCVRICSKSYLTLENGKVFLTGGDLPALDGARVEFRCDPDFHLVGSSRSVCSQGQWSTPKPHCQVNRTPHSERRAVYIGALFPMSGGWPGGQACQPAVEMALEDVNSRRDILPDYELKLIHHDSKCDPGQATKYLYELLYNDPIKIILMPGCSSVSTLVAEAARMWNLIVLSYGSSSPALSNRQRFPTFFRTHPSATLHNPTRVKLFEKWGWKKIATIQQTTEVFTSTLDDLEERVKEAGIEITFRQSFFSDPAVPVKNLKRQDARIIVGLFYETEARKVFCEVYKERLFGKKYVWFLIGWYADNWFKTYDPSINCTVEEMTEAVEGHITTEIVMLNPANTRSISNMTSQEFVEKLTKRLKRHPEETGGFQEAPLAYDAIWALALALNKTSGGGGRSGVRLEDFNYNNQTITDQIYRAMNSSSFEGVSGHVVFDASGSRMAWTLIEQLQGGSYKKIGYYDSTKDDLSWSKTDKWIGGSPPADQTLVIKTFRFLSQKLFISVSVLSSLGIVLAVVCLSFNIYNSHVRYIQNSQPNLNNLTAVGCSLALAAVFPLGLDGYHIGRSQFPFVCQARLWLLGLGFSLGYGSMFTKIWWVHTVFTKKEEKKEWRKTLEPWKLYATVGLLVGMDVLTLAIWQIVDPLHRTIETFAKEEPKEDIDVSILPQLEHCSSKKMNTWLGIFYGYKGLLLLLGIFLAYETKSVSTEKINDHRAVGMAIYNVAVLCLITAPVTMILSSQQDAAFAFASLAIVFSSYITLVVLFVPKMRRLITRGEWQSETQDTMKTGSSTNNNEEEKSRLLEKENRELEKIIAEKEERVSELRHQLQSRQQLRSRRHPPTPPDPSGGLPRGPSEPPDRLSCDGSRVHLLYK
T1 sequence (O88871 41-940 partner): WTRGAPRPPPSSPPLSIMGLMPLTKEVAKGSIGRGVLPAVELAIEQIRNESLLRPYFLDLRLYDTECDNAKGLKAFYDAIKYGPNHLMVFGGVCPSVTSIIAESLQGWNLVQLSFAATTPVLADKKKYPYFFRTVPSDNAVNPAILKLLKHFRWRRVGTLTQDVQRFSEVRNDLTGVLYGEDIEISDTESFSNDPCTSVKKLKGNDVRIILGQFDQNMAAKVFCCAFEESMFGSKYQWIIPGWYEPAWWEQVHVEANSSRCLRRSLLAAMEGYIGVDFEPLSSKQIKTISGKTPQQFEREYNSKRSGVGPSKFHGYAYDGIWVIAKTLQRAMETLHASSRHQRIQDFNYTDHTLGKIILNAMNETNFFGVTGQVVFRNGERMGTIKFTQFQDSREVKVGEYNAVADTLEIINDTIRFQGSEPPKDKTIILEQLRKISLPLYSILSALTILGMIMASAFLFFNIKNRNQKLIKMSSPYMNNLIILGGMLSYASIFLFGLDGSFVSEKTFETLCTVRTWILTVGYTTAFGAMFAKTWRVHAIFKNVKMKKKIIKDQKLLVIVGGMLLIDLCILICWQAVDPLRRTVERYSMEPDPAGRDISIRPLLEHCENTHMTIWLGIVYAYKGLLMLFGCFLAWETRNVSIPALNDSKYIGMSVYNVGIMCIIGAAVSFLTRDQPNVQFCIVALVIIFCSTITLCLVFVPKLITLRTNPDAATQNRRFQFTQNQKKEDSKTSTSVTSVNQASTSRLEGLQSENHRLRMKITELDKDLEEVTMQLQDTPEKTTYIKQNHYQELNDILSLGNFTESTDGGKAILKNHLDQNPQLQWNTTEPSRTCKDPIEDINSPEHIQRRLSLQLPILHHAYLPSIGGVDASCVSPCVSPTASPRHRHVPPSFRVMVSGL

[1] = test system: extracellular DA in the NACC; assay: Microdialysis: ethanol-induced increases in NACC DA; type: in vivo, rats; settings: ethanol 1.0 g/kg i.p., approximately 125 minutes following administration
Description: Ethanol at a dose of 1.0 g/kg i.p. was administered to the animals.

[2] = test system: extracellular DA levels in the NACC; settings: cited from earlier work
Sprague-Dawley rats = assay: Gross locomotor activity during microdialysis (infrared motion sensor); settings: nicotine, regardless of the dose of GVG
From the text: In parallel to the quantitative estimates of dopamine concentration, the locomotor response of these animals to stimulant administration was simultaneously quantified using an infrared motion sensor. This infrared optical proximity detector monitored movement of the gimbaled arm, an integral component of the freely moving system. The digital output of the detector was interfaced with an IBM personal computer and programmed to count both positive and negative arm deflections. […] Locomotor activity was then expressed as the number of deflections per sample interval.

serotonin (5-HT) = assay: Microdialysis Example 15: extracellular serotonin after nicotine; type: in vivo; settings: nicotine 0.4 mg/kg s.c., saline pretreated animals
Description: (§1) Briefly, two days prior to the microdialysis experiments, siliconized guide cannulae were implanted targeting the NAcc (A=+1.5 mm, L=−1.0 mm, V=−5.6 mm). […] Dialysate samples were assayed for monoamine content by microbore high-pressure liquid chromatography (HPLC) coupled with electrochemical detection. […] Peak effects were analyzed with a one-way ANOVA, and post-hoc Bonferroni t-test of topiramate pretreated groups compared to saline pretreated controls provided ANOVA significance at a critical value of 0.05.

rats [3] = assay: Nicotine-induced conditioned place preference; type: in vivo
From the text: A total of 8 rats were examined for each treatment pairing. Animals received 4 pairings over an 8 day period, one pairing per day. […] The protocol on days 1 and 2 was repeated 3 additional times.
The CPP apparatus was made entirely of plexiglass, except for the floor in one of the pairing chambers, which was made of a stainless steel plate with holes (0.5 mm in diameter) spaced 0.5 mm from edge to edge. The two pairing chambers differed in visual and tactile cues. One chamber was entirely light blue with the stainless steel floor and the second chamber was light blue with horizontal black stripes (2.5 cm wide) spaced 3.8 cm apart with a smooth plexiglass floor.
The conditioning procedure consisted of 20 sessions carried out consecutively over 20 days. The first three sessions were habituation sessions, during which the animals were handled for 5 minutes per day and exposed to the sights and sounds of the test room. […] The amount of time spent in each chamber was recorded using an automated infrared beam electronically coupled to a timer.
The animals were habituated as described above. […] Subsequently, the animals were then placed into the appropriate chamber for 30 minutes. This was repeated for 8 pairings over a 16 day period. On the test day, animals were placed in the CPP apparatus and allowed free access to the all of the CPP chambers and the amount of time spent in chamber was recorded.

[4] = test system: mesolimbic extracellular dopamine (DA), NAcc; assay: Microdialysis Example 15: extracellular dopamine after nicotine; type: in vivo; settings: nicotine 0.4 mg/kg s.c., saline pretreated animals
Description: as §1

[5] = test system: extracellular DA in the NACC; assay: In vivo microdialysis: nicotine-induced increases in extracellular NACC DA; parameters: species or system rats
From the text: All animals were used under an IACUC-approved protocol and with strict adherence to the NIH guidelines. Adult male Sprague-Dawley rats (200-300 g, Taconic Farms), housed in the animals care facility under 12:12 light/dark conditions, were placed into 6 groups (n=5-9), anesthetized and siliconized guide cannulae were stereotactically implanted into the right NACC (2.0 mm anterior and 1.0 mm lateral to bregms, and 7.0 mm ventral to the cortical surface) at least 4 days prior to study. […] Animals were placed in bowls, and probes were inserted and flushed with ACSF overnight. On the day of the study, a minimum of three samples were injected to determine baseline stability. Samples were collected for 20 min. and injected on-line (CMA/160, BAS). The average Dopamine concentration of these three stable samples was defined as control (100%), and all subsequent treatment values were transformed to a percentage of that control. […] The high performance liquid chromatography (HPLC) system consists of a BAS reverse-phase column (3.0 μC-18), a BAS LC-4C electrochemical transducer with a dual/glassy carbon electrode set at 650 mV, a computer that analyzes data on-line using a commercial software package (Chromograph Bioanalytical Systems), and a dual pen chart recorder. The mobile phase (flow rate 1.0 ml/min) consisted of 7.0% methanol, 50 mM sodium phosphate monobasic, 1.0 mM sodium octyl sulfate, and 0.1 mm EDNA, pH 4.0. […] Upon completion of the study, animals were decapitated and frozen sections were obtained for probe placement verification.
The open circles are control animals.
In all studies, animals were placed in the microdialysis bowls the night before the experiment and artificial cerebrospinal fluid (ACSF) was perfused through the microdialysis probes at a flow rate of 2.0 μl/min. At the end of each study, animals were sacrificed and their brains were removed and sectioned for probe placement verification.

norepinephrine (NE) = assay: Microdialysis Example 15: extracellular norepinephrine after nicotine; type: in vivo; settings: nicotine 0.4 mg/kg s.c., saline pretreated animals
Description: as §1

[6] = test system: synaptic DA (11C-raclopride binding, striatum); assay: Primate PET: 11C-raclopride mean DV ratio, GVG and nicotine; type: in vivo, baboons (Papio anubis)
Description: Adult female baboons (n=16) (Papio anubis, 13-18 kg) were used for all imaging studies and carbon-11 labeled raclopride (^11C-raclopride). […] Control animals (Group 1) received two injections of ^11C-raclopride without any drug intervention in order to determine the test/retest variability of the measurement. […] Arterial blood samples were obtained throughout the study and selected plasma samples were analyzed for the presence of unchanged ^11C-raclopride. Animals were not removed from the gantry between isotope injections.
Each primate (n=16) received two ^11C-raclopride injections. […] Test/retest primates (n=7, Group 1, Table XVI) received placebo (0.9% saline, 1 ml/kg) 30 mins prior to the second radiotracer injection in order to determine the test/retest variability of the method.

[7] = test system: extracellular DA levels in the NACC; settings: SCH 50911 alone; cited from earlier work
GABAA receptor complex = settings: in vivo; cited from earlier work
rats [8] = settings: baclofen 1.25-5 mg/kg i.p. acute pretreatment; for at least four hours; cited from earlier work
rats [9] = settings: microinjection of baclofen into the ventral tegmental area; cited from earlier work
male Wistar rats = settings: baclofen; cited from earlier work
cocaine abuser = settings: case report; cited from earlier work
NAc DA = assay: Microdialysis: cocaine/heroin (speedball) induced increases in NAc DA; type: in vivo, rats
Description: In vivo microdialysis studies were performed using adult male Sprague-Dawley rats (Taconic Farms) as detailed previously (Morgan and Dewey, 1998). Cocaine, a dopamine reuptake inhibitor, (n=6-8) was administered (i.p.) at a dose of 20 mg/kg while heroin, an indirect dopamine releaser, (n=6-8) was administered (i.p.) at a dose of 0.5 mg/kg. In studies designed to investigate the synergistic effects of a cocaine/heroin combination (n=6-8), both drugs were administered at the identical dose used in the single drug studies. Alone cocaine produced a marked elevation in extracellular DA of approximately 380% above baseline values, 60 minutes following administration. DA returned to baseline within 120 minutes. In contrast, heroin increased NAc DA by only 70%, 60 minutes following administration, returning to baseline within 140 minutes. However, when combined, the two drugs produced an increase in NAc DA of approximately 1000%, 180 minutes following administration that had not returned to baseline values by 200 minutes after reaching peak values (FIG. 9).

[10] = test system: extracellular DA in the NACC; assay: Microdialysis: methamphetamine-induced increases in NACC DA; type: in vivo, rats
From the text: All animals were used under an IACUC-approved protocol and with strict adherence to the NIH guidelines. Adult male Sprague-Dawley rats (200-300 g, Taconic Farms), housed in the animals care facility under 12:12 light/dark conditions, were placed into 6 groups (n=5-9), anesthetized and siliconized guide cannulae were stereotactically implanted into the right NACC (2.0 mm anterior and 1.0 mm lateral to bregms, and 7.0 mm ventral to the cortical surface) at least 4 days prior to study. Microdialysis probes (2.0 mm, Bioanalytical Systems, BAS, West Lafayette, Ind.) were positioned within the guide cannulae and artificial cerebrospinal fluid (ACSF, 155.0 mM NA^−, 1.1 mM Ca^2−, 2.9 mM K^−, 132.76 mM Cl^−, and 0.83 mM Mg^2−) was administered through the probe using a CMA/100 microinfusion pump (BAS) at a flow rate of 2.0 μl/min. Animals were placed in bowls, and probes were inserted and flushed with ACSF overnight. On the day of the study, a minimum of three samples were injected to determine baseline stability. Samples were collected for 20 min. and injected on-line (CMA/160, BAS). The average Dopamine concentration of these three stable samples was defined as control (100%), and all subsequent treatment values were transformed to a percentage of that control. […] The high performance liquid chromatography (HPLC) system consists of a BAS reverse-phase column (3.0 μC-18), a BAS LC-4C electrochemical transducer with a dual/glassy carbon electrode set at 650 mV, a computer that analyzes data on-line using a commercial software package (Chromograph Bioanalytical Systems), and a dual pen chart recorder. The mobile phase (flow rate 1.0 ml/min) consisted of 7.0% methanol, 50 mM sodium phosphate monobasic, 1.0 mM sodium octyl sulfate, and 0.1 mm […], pH 4.0. DA eluted at 7.5 min. Upon completion of the study, animals were decapitated and frozen sections were obtained for probe placement verification.
Methamphetamine at a dose of 1.25 mg/kg i.p. and 2.5 mg/kg i.p. was administered to the animals. It was noted that methamphetamine elevated extracellular DA concentrations in the NACC by approximately 2500% over basal levels, 100 minutes following administration of 2.5 mg/kg and approximately 1500% over basal levels following administration of 1.25 mg/kg (FIG. 6). DA returned to basal levels approximately 200 minutes following administration.

rat = settings: cited from earlier work
[11] = Nicotine 0.4 mg/kg s.c./Vehicle, 4 pairings (Table XII)
[12] = acquisition, Saline/Nicotine 0.4 mg/kg s.c., 8 pairings (Table XV)
[13] = expression, Saline/Nicotine (0.4 mg/kg s.c.) 8 pairings, saline on test day
[14] = expression, Saline/Nicotine (0.4 mg/kg s.c.) 8 pairings, saline on test day, listed as nicotine

NCC(O)(CS(=O)(=O)O)c1ccc(Cl)cc1 (centres unmarked) [2-hydroxysaclofen]
effect of baclofen on morphine CPP (GABAB receptors): antagonized

CCO [Ethanol]
elevation of extracellular DA concentrations in the NACC over basal levels [1]: approximately 200%

CN1CCC[C@H]1c1cccnc1 [Nicotine]
increase in extracellular DA levels in the NACC ([2]; nicotine 0.6 mg/kg s.c.): 220%
increase in extracellular DA levels in the NACC ([2]; nicotine 0.8 mg/kg s.c.): 179%
gross locomotor activity (Sprague-Dawley rats): increased gross locomotor activity
5-HT increase (serotonin (5-HT)): 116±11.2%
Time spent in chambers, Paired (rats [3]; [11]): 9.4 ± 0.5 min
Time spent in chambers, Unpaired (rats [3]; [11]): 5.6 ± 0.5 min
Time spent in chambers, Paired (rats [3]; [12]): 9.6 ± 0.6^1 min
Time spent in chambers, Unpaired (rats [3]; [12]): 5.4 ± 0.6 min
Time spent in chambers, Paired (rats [3]; [13]): 9.6 ± 0.6 min
Time spent in chambers, Unpaired (rats [3]; [13]): 5.4 ± 0.6 min
Time spent in chambers, Paired (rats [3]; [14]): 9.6 ± 0.6 min
Time spent in chambers, Unpaired (rats [3]; [14]): 5.4 ± 0.6 min
DA increase [4]: 70±10.5%
increase of NACC DA levels (rank order) ([5]; nicotine): 90%
time for DA to return to basal levels ([5]; nicotine 0.4 mg/kg s.c., Group 1): approximately 160 minutes
DA levels, % of basal levels ([5]; nicotine 0.4 mg/kg s.c., Group 1 (naive)): approximately 200%
increase in extracellular DA concentrations in the NACC ([5]; nicotine 0.4 mg/kg s.c., Group 1 (naive), 80 minutes following administration): approximately 100%
NE increase (norepinephrine (NE)): 176±26%
reduction of the mean DV ratio ([6]; Group 3: nicotine alone): 12%
% Change in Mean DV Ratio ([6]; Group 3: nicotine alone 0.3 mg total, 30 minutes prior to second 11C-raclopride injection): −12.3 ± 2.6%

CC1(C)CO[C@@H](CC(=O)O)CN1 [SCH 50911]
DA levels when given alone [7]: does not significantly alter DA levels

Cc1nnc2n1-c1ccc(Cl)cc1C(c1ccccc1)=NC2 [alprazolam]
rate of cocaine self-administration (GABAA receptor complex): decreased the rate of cocaine self-administration

NCC(CC(=O)O)c1ccc(Cl)cc1 (centres unmarked) [baclofen]
self-administration of cocaine (rats [8]): suppress self-administration of cocaine
rate-current intensity curve of lateral hypothalamus stimulation (rats [9]): rightward shift of the rate-current intensity curve
break points for intravenous administration of cocaine (male Wistar rats): dose-dependent decrease
rate of drug intake (male Wistar rats): did not affect the rate of drug intake

NCC1(CC(=O)O)CCCCC1 [gabapentin]
cocaine withdrawal and craving (cocaine abuser): attenuated cocaine withdrawal and craving

CC(=O)Oc1ccc2c3c1O[C@H]1[C@@H](OC(C)=O)C=C[C@H]4[C@@H](C2)N(C)CC[C@@]341 [heroin]
time for DA to return to baseline (NAc DA; cocaine 20 mg/kg i.p. or heroin 0.5 mg/kg i.p. alone): ≤ 140 min
increase in NAc DA (NAc DA; heroin alone 0.5 mg/kg i.p., 60 minutes following administration): 70%

CN[C@@H](C)Cc1ccccc1 [methamphetamine]
time for DA to return to basal levels ([10]; methamphetamine): approximately 200 minutes
elevation of extracellular DA concentrations in the NACC over basal levels ([10]; methamphetamine 1.25 mg/kg i.p.): approximately 1500%

NC(=O)CCC/N=C(\c1ccc(Cl)cc1)c1cc(F)ccc1O [progabide]
conditioned place preference or aversion, alone (rat; progabide alone): does not produce conditioned place preference or aversion
CPP response to […] i.p. of amphetamine (rat; progabide pretreatment, present for 35 minutes): did not alter the CPP response
